Consider 2 compounds from patent US20080311168A1, “PROCESS FOR COMBATING ACARIDS” (RHODIA CHIMIE, priority 2002, published 2008).

In assay [1] the test system is dust mites. In words: Curative test: ZnS powder deposited on fitted carpet holding an existing acarid population, Example 14. The assay is classed as in vivo, dermatophagoides pteronyssinus. The protocol: (§1) The object of this study is to evaluate the effectiveness of a powder intended to be applied to floor coverings in a curative and/or preventive treatment for combating populations of dust mites.
(§2) This characterization is carried out in the same laboratory which carried out the test of Example 12. The source of the acarids is identical.
(§3) The test comprises two parts: • a curative test by deposition of the product on an existing population of acarids, • a preventive test with deposition of acarids on surfaces of fitted carpets treated beforehand with the product.
(§4) Monitoring is carried out over a period of at least two cycles, i.e. 6 weeks, and in comparison with a population not subjected to the product.
(§5) The experimental method is derived from the experimental context of the AFNOR standard NF G 39-011.
(§6) The experimental unit is composed of a chamber with a diameter of 8 cm which is escapeproof with regard to the acarids but which allows ventilation and in which are found: • a piece of short-pile polyamide fitted carpet as floor • 5 g of nutrient medium (dust+skin scales) • the corresponding dose of the test powder.
• approximately 50 active acarids are placed on the fitted carpets • the test product is mixed with the food and sprinkled with a salt cellar over the fitted carpet containing the acarids • 4 repetitions are carried out on the same day as experimental factor, including for the control batches composed of the same device but without the product • the product is applied at a rate of 160 mg/m^2 • 2 counts of the populations of acarids are carried out after incubating for 4 and 6 weeks under optimum development conditions.
(§7) • the product is mixed with the food and sprinkled with a salt cellar over pieces of acarid-free fitted carpets • one month later, approximately 50 active acarids are placed on the treated fitted carpets • 4 repetitions are carried out as experimental factor, including for the control batches composed of the same device but without the product (same control as for the curative test) • the product is applied at the rate of 10, 40, 80 and 160 mg/m^2 • counting of the population of acarids is carried out after incubating for 6 weeks under optimum development conditions. The monitorings consist in counting the number of living acarids after the time period of 4 or 6 weeks of incubation. The method of counting the acarids and the calculation of the coefficient of regulation of the population of acarids (CP) are identical to Example 12.
(§8) The population counts on controlled and treated are all carried out at the same number of weeks.

Assay [2] deals with dust mites (dermatophagoides pteronyssinus). In words: Regulation of a dust mite population by powders (derived from AFNOR NF G 39-011), Example 12. Type of assay: in vivo. The following applies: for Number of living acarids after 6 weeks, Mean: 5 g test powder + 5 g nutrient medium (food 1/NF G 39-011), 50 acarids placed, 4 repetitions; for CP (coefficient of regulation of the population of acarids), Mean: 6 weeks, versus sample without additive, 5 g test powder + 5 g nutrient medium, 0 = ineffective, 100 = eradication. The protocol: This characterization is carried out by a laboratory registered by the French Ministry of Agriculture, Fisheries and Food. The object is to evaluate the effectiveness of PA powders, to which ZnS may or may not have been added, on the regulation of the change in a population of dust mites (dermatophagoides pteronyssinus). Monitoring is carried out over two development cycles of the acarids, i.e. 6 weeks.
The acarids used originate from a laboratory strain raised on a substrate composed of a 50/50 (w/w) mixture of wheatgerm and of brewers yeast as specks graded by sieving (fragments of less than 1 mm). The temperature is between 23 and 25° C. and the relative humidity is maintained at 75% by the presence of a saturated ammonium sulphate solution. The screen is kept in darkness.
The screen is supplied by the Laboratoire des Insectes et Acariens des Denrees [Laboratory of the Insects and Acarids of Foodstuff] of the Institut National de Recherches Agronomiques (INRA) [National Institute of Agronomic Research] at Bordeaux, according to the AFNOR standard NF G 39-011.
The method is derived directly from the AFNOR standard NF G 39-011, with the following variations: • the experimental unit is composed of a chamber with a diameter of 8 cm which is escapeproof with regard to acarids but which allows ventilation and in which are found: • 5 g of nutrient medium (food 1/NF G 39-011 appendix) • 5 g of test powder, carpeting the bottom of the chamber • the study is carried out by placing 50 acarids in these devices • 4 repetitions are carried out on the same day per experimental factor, including for the control batches composed of the same device but without the addition of the powder. The result is expressed in the form of a mean and standard deviation with regard to these 4 samples.
The monitoring consists in counting the number of living acarids after the time period of 6 weeks. As direct counting is rendered impossible by the structure of the substrate, extraction by heat according to the recommendations of the AFNOR standard NF G 39-011 is used.
The criterion of effectiveness of an additive is then defined as the coefficient of regulation of the population of acarids (CP), i.e.:
The population counts are all carried out at 6 weeks.

Assay [3] relates to dust mites. Put plainly: Preventive test: acarids deposited on fitted carpet treated beforehand with ZnS powder, Example 14. The assay is classed as in vivo, dermatophagoides pteronyssinus. The protocol: as §1, §2, §3, §4, §5, §6, §7, §8

As for `[S-2].[Zn+2]` [ZnS 1, ZnS], the “Number of living acarids after 4 weeks, Mean” value in the assay with dust mites [1] (160 mg/m^2, 4 weeks incubation) is 148; in the assay with dust mites [3] (10 mg/m^2, acarids placed one month after treatment, 4 weeks), 242; in the assay with dust mites [3] (40 mg/m^2, 4 weeks), 154; in the assay on dust mites [3] (80 mg/m^2, 4 weeks), 142; with dust mites [3] (160 mg/m^2, 4 weeks), 123. Moreover, the “CP 4 weeks, Mean” value is on record as 42 with dust mites [1] (160 mg/m^2, 4 weeks, versus untreated carpet); 6 with dust mites [3] (10 mg/m^2, 4 weeks); 40 with dust mites [3] (40 mg/m^2, 4 weeks); 45 in the assay with dust mites [3] (80 mg/m^2, 4 weeks); 52 in the assay with dust mites [3] (160 mg/m^2, 4 weeks). In addition, the “Number of living acarids after 6 weeks, Mean” value is 284 in the assay with dust mites [1] (160 mg/m^2, 6 weeks incubation); 318 in assay [2]; 849 in the assay with dust mites [3] (10 mg/m^2, 6 weeks); 361 in the assay with dust mites [3] (40 mg/m^2, 6 weeks); 315 in the assay on dust mites [3] (80 mg/m^2, 6 weeks); 290 in the assay with dust mites [3] (160 mg/m^2, 6 weeks). Besides, the “CP 6 weeks, Mean” value with dust mites [1] (160 mg/m^2, 6 weeks, versus untreated carpet) worked out at 69; in the assay on dust mites [3] (10 mg/m^2, 6 weeks) it was 6; with dust mites [3] (40 mg/m^2, 6 weeks), 60; in the assay on dust mites [3] (80 mg/m^2, 6 weeks), 65; in the assay on dust mites [3] (160 mg/m^2, 6 weeks), 68. Besides, in assay [2], the “CP (coefficient of regulation of the population of acarids), Mean” value came to 63.

Turning to `[S-2].[Zn+2]` [ZnS 2, ZnS], in assay [2], the “Number of living acarids after 6 weeks, Mean” value is 305 and the “CP (coefficient of regulation of the population of acarids), Mean” value is 65.
